# Results published in patent publication US20250302797A1, “COMBINATION THERAPIES FOR TREATING INFLAMMATION” (Flagship Pioneering Innovations VI, LLC, priority 2022, published 2025).
# How the values were obtained:
# LPS-injected mice = experiment: LPS-induced systemic inflammation mouse model: blood cytokine levels; format: in vivo, C57Bl/6 mice; conditions: intraperitoneal 1 hour prior to LPS (1 mg/kg); Dexamethasone 5 mg/kg or Luteolin+Gamma-mangostin 4+4.5 mg/kg; serum or plasma
# Method: C57Bl/6 male mice, 6-8 weeks old, weighing 22±2 g were randomly divided into groups of 5-6 each. Sham animals were injected intra-peritoneally with PBS only. All other groups were intraperitoneally injected with either Vehicle control, Dexamethasone (5 mg/kg), or a combination of Luteolin+Gamma-mangostin (4+4.5 mg/kg) at 1 hour prior to injection with LPS (1 mg/kg), an agent known to trigger systemic inflammation. After LPS injection, blood was collected at different time points: 30 min, 2 h, 4 h and 24 h and the processed serum or plasma were used for further cytokine analysis through LUMINEX or Ella Automated Immunoassay System (Protein Simple).
# [1] = test system: cytokine gene expression in ears of mice stimulated with oxazolone; experiment: Oxazolone-induced dermatitis mouse model: cytokine gene expression in ear; format: in vivo, BALB/c mice; conditions: right ear; topical; Dexamethasone 5 mg/mL or Luteolin (1.6-9.6 mg/mL)+Gamma-mangostin (1.2-7.2 mg/mL)
# Method: (§1) Male BALB/c mice weighing 22±2 g are used and randomly divided into groups of 5 each. Sham treatment group receive no oxazolone sensitization and challenge, but PBS, plus treated with vehicle (Acetone:ethanol 1:1). All other groups' animals were sensitized by applying oxazolone (100 μL, 1.5% in acetone) onto their preshaved abdominal surface on Day 0, and challenged by oxazolone (1%, 20 μL/ear) seven (7) days later. 20 μL of either Vehicle, Dexamethasone (5 mg/mL; anti-inflammatory positive control), or a combination of Luteolin (1.6-9.6 mg/mL)+Gamma-mangostin (1.2-7.2 mg/mL) were applied topically to the anterior and posterior surfaces of the right ear 30 minutes before and 15 minutes after oxazolone challenge. Left ear was unstimulated and treated as a control.
# (§2) The right and left ear thickness of each mouse were measured at 24 hours after oxazolone challenge as an index of inflammation. The right ear was harvested and snap frozen for cytokine gene expression analysis.
# [2] = test system: oxazolone-induced ear swelling in mice; experiment: Oxazolone-induced dermatitis mouse model: ear thickness; format: in vivo, BALB/c mice; conditions: topical 20 μL, 5 mg/mL, 30 minutes before and 15 minutes after oxazolone challenge; measured at 24 hours
# Method: as §1, §2
# [3] = test system: Differentiated THP-1 macrophages stimulated with IFN-gamma and LPS; experiment: THP1 cytokine secretion assay; format: cell-based, Human; conditions: for greatest IL6 inhibition to: IL6 secretion; for greatest TNFa inhibition to: TNFa secretion
# Method: Human THP-1 cells were plated and differentiated into macrophages through treatment with phorbol 12-myristate 13-acetate and beta-mercaptoethanol for 72 hours. Differentiated THP-1 macrophages were then stimulated with IFN-gamma (20 ng/mL) and LPS (50 ng/mL) to induce an inflammatory response and co-treated with gamma-mangostin and/or luteolin at 0, 0.2, 0.5, 2, 5, 10 uM. Various secreted cytokines were measured from the media using the Ella Automated Immunoassay System (ProteinSimple).
# [4] = Gamma-mangostin alone at 10 uM (0-10 uM tested)
# [5] = Luteolin alone at 0.5 uM (0-10 uM tested)
smiles,measurement,setting,value
C[C@@H]1C[C@H]2[C@@H]3CCC4=CC(=O)C=C[C@]4(C)[C@@]3(F)[C@@H](O)C[C@]2(C)[C@@]1(O)C(=O)CO [Dexamethasone],"CXCL1 level, % of the Vehicle",LPS-injected mice,57%
same,"MIP1-beta level, % of the Vehicle",LPS-injected mice,29%
same,"TNFa level, % of the Vehicle",LPS-injected mice,12%
same,Ifng gene expression (% of Vehicle control),[1],445%
same,Il1b gene expression (% of Vehicle control),[1],5%
same,Il4 gene expression (% of Vehicle control),[1],24%
same,Il6 gene expression (% of Vehicle control),[1],33%
same,Il11 gene expression (% of Vehicle control),[1],55%
same,Il13 gene expression (% of Vehicle control),[1],20%
same,Tnfa gene expression (% of Vehicle control),[1],14%
same,reduction in ear thickness compared to the Vehicle-treated ears,[2],29%
"CC(C)=CCc1c(O)cc2oc3cc(O)c(O)c(CC=C(C)C)c3c(=O)c2c1O [Gamma-mangostin, Gamma-Mangostin]",greatest IL6 inhibition to,[3]; [4],53%
same,greatest TNFa inhibition to,[3]; [4],45%
O=c1cc(-c2ccc(O)c(O)c2)oc2cc(O)cc(O)c12 [Luteolin],greatest IL6 inhibition to,[3]; [5],53.7%
same,greatest TNFa inhibition to,[3]; [5],45.6%
